Test results: patent US20080306056A1, “PYRAZOLE-DERIVATIVES AS FACTOR Xa INHIBITORS” (SANOFI-AVENTIS DEUTSCHLAND GMBH, priority 2002, published 2008)

Molecular target: T1, human factor Xa (Homo sapiens, UniProt P00742)
T1 construct: 25 μl human factor Xa (Enzyme Research Laboratories, Inc; South Bend, Ind.); purchased Enzyme Research Laboratories, Inc; South Bend, Ind
Test: Factor Xa assay (chromogenic, purified enzyme)
Assay type: biochemical
Details: inhibition constant for factor Xa; chromogenic substrate S-2765 140 μM, enzyme 0.5 nM, 25° C., pH 7.8; Ki=IC50/{1+(substrate concentration/Km)}; read-out: Ki(FXa)
Method in brief: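 Human factor Xa (0.5 nM) pre-incubated 10 min with compound in TBS-PEG/DMSO, then S-2765 (140 μM) added; initial hydrolysis rate read at 405 nm, 25°C. IC50 by linear regression of relative rate vs log concentration; Ki = IC50/(1+[S]/Km).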

T1 sequence (P00742 235-488 limits assumed): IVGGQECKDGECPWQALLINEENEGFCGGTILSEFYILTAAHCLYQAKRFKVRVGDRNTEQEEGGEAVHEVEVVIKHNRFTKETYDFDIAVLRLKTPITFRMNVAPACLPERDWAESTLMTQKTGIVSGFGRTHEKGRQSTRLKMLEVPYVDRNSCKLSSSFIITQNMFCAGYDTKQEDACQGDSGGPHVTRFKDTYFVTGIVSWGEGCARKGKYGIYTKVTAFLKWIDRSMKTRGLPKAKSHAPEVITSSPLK
T1 sequence (P00742 41-179 partner limits assumed): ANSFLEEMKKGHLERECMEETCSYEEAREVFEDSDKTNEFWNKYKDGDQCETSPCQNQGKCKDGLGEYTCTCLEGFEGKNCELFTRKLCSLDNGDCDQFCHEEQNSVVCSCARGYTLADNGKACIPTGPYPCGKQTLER

SMILES | Ki [nM]
CC(C)N1CCC(NC(=O)c2cc(C(=O)NC#N)nn2Cc2cc(-c3ccc(Cl)s3)on2)CC1 [Example 49, 2-[5-(5-Chloro-thiophen-2-yl)-isoxazol-3-ylmethyl]-5-(cyanamide-1-carbonyl)-2H-pyrazole-3-carboxylic acid (1-isopropyl-piperidin-4-yl)-amide] | 40
CC(C)N1CCC(NC(=O)c2cc(C(=O)N3CCSCC3)nn2Cc2cc(-c3ccc(Cl)s3)on2)CC1 [Example 34, 2-[5-(5-Chloro-thiophen-2-yl)-isoxazol-3-ylmethyl]-5-(thiomorpholine-4-carbonyl)-2H-pyrazole-3-carboxylic acid (1-isopropyl-piperidin-4-yl)-amide] | 108
CC(C)N1CCC(NC(=O)c2cc(-c3cccs3)nn2Cc2cc(-c3ccc(Cl)s3)on2)CC1 [Example 1, 2-[5-(5-Chloro-thiophen-2-yl)-isoxazol-3-ylmethyl]-5-thiophen-2-yl-2H-pyrazole-3-carboxylic acid (1-isopropyl-piperidin-4-yl)-amide] | 30
CC(C)N1CCC(NC(=O)c2cc(C(=O)NCCN3CCOCC3)nn2Cc2cc(-c3ccc(Cl)s3)on2)CC1 [Example 70, 1-[5-(5-Chloro-thiophen-2-yl)-isoxazol-3-ylmethyl]-1H-pyrazole-3,5-dicarboxylic acid 5-[(1-isopropyl-piperidin-4-yl)-amide] 3-[(2-morpholin-4-yl-ethyl)-amide]] | 182
CCCc1c(C#N)c(C(=O)NC2CCN(C(C)C)CC2)nn1Cc1cc(-c2ccc(Cl)s2)on1 [Example 11, 1-[5-(5-Chloro-thiophen-2-yl)-isoxazol-3-ylmethyl]-4-cyano-5-propyl-1H-pyrazole-3-carboxylic acid (1-isopropyl-piperidin-4-yl)-amide] | 83
CC(C)N1CCC(NC(=O)c2nn(Cc3cc(-c4ccc(Cl)s4)on3)cc2C#N)CC1 [Example 56, 1-[5-(5-Chloro-thiophen-2-yl)-isoxazol-3-ylmethyl]-4-cyano-1H-pyrazole-3-carboxylic acid (1-isopropyl-piperidin-4-yl)-amide] | 144
CC(C)N1CCC(NC(=O)c2cc(C(=O)N3CCOC3=O)nn2Cc2cc(-c3ccc(Cl)s3)on2)CC1 [Example 72, 2-[5-(5-Chloro-thiophen-2-yl)-isoxazol-3-ylmethyl]-5-(2-oxo-oxazolidine-3-carbonyl)-2H-pyrazole-3-carboxylic acid (1-isopropyl-piperidin-4-yl)-amide] | 92
CC(C)N1CCC(NC(=O)c2cc(C(=O)NCC(N)=O)nn2Cc2cc(-c3ccc(Cl)s3)on2)CC1 [Example 60, 1-[5-(5-Chloro-thiophen-2-yl)-isoxazol-3-ylmethyl]-1H-pyrazole-3,5-dicarboxylic acid 3-carbamoylmethyl-amide 5-[(1-isopropyl-piperidin-4-yl)-amide]] | 56
CC(C)N1CCC(NC(=O)c2cc(C(=O)OCC(=O)O)nn2Cc2cc(-c3ccc(Cl)s3)on2)CC1 [Example 111, 1-[5-(5-Chloro-thiophen-2-yl)-isoxazol-3-ylmethyl]-5-(1-isopropyl-piperidin-4-ylcarbamoyl)-1H-pyrazole-3-carboxylic acid carboxymethyl ester] | 49
CCOC(=O)c1cc(C(=O)NC2CCN(C(C)C)CC2)n(Cc2cc(-c3ccc(Cl)s3)on2)n1 [Example 23, 1-[5-(5-Chloro-thiophen-2-yl)-isoxazol-3-ylmethyl]-5-(1-isopropyl-piperidin-4-ylcarbamoyl)-1H-pyrazole-3-carboxylic acid ethyl ester] | 144
CC(C)C(NC(=O)c1cc(C(=O)NC2CCN(C(C)C)CC2)n(Cc2cc(-c3ccc(Cl)s3)on2)n1)C(=O)O (centres unmarked) [Example 98, 2-{[1-[5-(5-Chloro-thiophen-2-yl)-isoxazol-3-ylmethyl]-5-(1-isopropyl-piperidin-4-ylcarbamoyl)-1H-pyrazole-3-carbonyl]-amino}-3-methyl-butyric acid] | 140
